ChEMBL document CHEMBL1201862, “PubChem BioAssay data set” (2004)
Active and inactive are the calls of the source.

Key:
[1] = target: T1, Endoribonuclease toxin MazF (Escherichia coli K-12, UniProt P0AE70); assay: MazF toxin RNase activators, dose response, biochemical, fluorescence, single-stranded RNA substrate, uHTS hits (AID 588481); format: functional
T1 sequence (P0AE70 whole entry): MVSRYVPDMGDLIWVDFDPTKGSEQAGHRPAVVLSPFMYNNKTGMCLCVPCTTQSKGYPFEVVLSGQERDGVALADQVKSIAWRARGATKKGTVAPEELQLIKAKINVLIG

[2] = target: T1, Endoribonuclease toxin MazF; assay: fluorescent RNA oligo signal without MazF, dose response, counter-screen for MazEF activator project, biochemical, fluorescence, single-stranded RNase substrate (AID 588502); format: functional
[3] = target: Dual specificity tyrosine-phosphorylation-regulated kinase 1A (Rattus norvegicus, UniProt Q63470); format: biochemical, Homo sapiens
P388/ADR = assay: cells; format: functional; settings: Mus musculus
SN12K1 = assay: cells; format: functional; settings: Homo sapiens
P388 = assay: cells; format: functional; settings: Mus musculus
[4] = Luminescence Cell-Based Dose Retest to Confirm Inhibitors of Cancer Stem Cells. [Related pubchem assays (depositor defined):AID2717, AID2721]; format: functional; settings: Homo sapiens
Melanocortin receptor 4 = Melanocortin receptor 4 (Homo sapiens, UniProt P32245); format: functional, cell-based;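 further: Cell-based assay with luminescence read-out, confirmatory dose-response testing for agonist activity of biased ligands at MC4R; human U2OS cells with tagged receptor and beta-arrestin; potency of agonists that increase receptor coupling to beta-arrestin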
Chain of Melanocortin receptor 4 (P32245 whole entry): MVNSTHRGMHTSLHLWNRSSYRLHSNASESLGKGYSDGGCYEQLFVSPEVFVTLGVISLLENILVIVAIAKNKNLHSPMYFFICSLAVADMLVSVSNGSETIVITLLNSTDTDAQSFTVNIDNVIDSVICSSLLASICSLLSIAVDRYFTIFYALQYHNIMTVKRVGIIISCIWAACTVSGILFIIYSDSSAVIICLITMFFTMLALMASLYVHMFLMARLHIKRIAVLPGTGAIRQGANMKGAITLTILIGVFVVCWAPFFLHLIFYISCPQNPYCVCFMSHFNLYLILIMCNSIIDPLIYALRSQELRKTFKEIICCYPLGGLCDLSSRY

[5] = target: T2, Short transient receptor potential channel 4 (Mus musculus, UniProt Q9QUQ5); assay: mouse TRPC4 channel inhibitors, dose response, cell-based, HEK293 TRPC4/mu-opioid, Fluo-4 calcium (AID 434942); format: functional;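 further: potency of inhibitors blocking the TRPC4 calcium response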
T2 sequence (Q9QUQ5 whole entry): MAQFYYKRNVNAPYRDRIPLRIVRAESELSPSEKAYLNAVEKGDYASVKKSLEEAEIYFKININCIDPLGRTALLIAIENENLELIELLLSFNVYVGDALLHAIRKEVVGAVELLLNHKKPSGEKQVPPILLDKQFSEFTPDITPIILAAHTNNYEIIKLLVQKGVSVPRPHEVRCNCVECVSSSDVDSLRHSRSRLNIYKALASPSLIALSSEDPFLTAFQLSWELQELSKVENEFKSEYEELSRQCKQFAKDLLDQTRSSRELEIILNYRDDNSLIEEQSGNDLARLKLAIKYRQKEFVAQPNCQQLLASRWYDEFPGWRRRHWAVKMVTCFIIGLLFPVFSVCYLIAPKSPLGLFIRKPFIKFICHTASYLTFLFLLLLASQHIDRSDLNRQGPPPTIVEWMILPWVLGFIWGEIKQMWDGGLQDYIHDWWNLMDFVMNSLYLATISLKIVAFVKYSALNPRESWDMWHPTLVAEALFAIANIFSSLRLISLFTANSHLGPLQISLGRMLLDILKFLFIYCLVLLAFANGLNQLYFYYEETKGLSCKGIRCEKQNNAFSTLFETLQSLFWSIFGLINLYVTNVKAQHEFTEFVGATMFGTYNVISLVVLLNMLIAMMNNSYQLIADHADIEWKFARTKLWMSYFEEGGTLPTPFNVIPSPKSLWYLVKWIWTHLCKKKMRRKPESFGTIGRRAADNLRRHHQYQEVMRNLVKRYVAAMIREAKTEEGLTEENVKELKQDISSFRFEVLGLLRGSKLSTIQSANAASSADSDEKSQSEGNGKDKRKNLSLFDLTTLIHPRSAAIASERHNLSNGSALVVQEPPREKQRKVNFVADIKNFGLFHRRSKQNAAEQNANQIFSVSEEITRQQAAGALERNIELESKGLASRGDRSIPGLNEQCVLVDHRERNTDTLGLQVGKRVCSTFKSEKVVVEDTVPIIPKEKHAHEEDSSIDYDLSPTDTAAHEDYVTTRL

HEK293 = assay: inhibitors of LMP1-driven NF-kB reporter, dose response, cell-based, HEK293, luciferase, cherry-pick (AID 588343); format: functional; settings: Homo sapiens
[6] = growth suppression of PTEN-null colon cells, dose response, cell-based, HCT116 PTEN knockout (AID 1047); format: functional;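 further: HCT116 colon tumor cells with PTEN knocked out; cells exposed to compound for 60 hours before readout; potency for loss of cell viability measured by luminescence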
[7] = growth suppression of beta-catenin-knockout colon cells, dose response, cell-based, HCT116, human colon tumor (AID 1045); format: functional;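 further: HCT116 colon tumor cells with beta catenin knocked out; cells exposed to compound for 60 hours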
Troponin, cardiac muscle = Troponin, cardiac muscle (Homo sapiens, UniProt P19429+P45379+P63316); assay: Fluorescence-based biochemical high throughput dose response assay for activators of the calcium sensitivity of cardiac Regulated Thin Filaments (RTF). [Related pubchem assays (depositor defined):AID493008, AID493018, AID504382, AID504383]; format: protein-complex assay
[8] = target: DNA dC->dU-editing enzyme APOBEC-3A (Homo sapiens, UniProt P31941); assay: APOBEC3A DNA deaminase inhibitors, dose response, biochemical (AID 504722); format: functional
Chain of DNA dC->dU-editing enzyme APOBEC-3A (P31941 whole entry): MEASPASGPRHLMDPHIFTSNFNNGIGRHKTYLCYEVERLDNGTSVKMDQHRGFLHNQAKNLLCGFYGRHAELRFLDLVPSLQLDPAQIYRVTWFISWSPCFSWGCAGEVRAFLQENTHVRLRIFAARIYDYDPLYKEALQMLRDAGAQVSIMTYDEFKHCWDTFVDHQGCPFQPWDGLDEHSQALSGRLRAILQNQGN

[9] = target: DNA dC->dU-editing enzyme APOBEC-3G (Homo sapiens, UniProt Q9HC16); assay: Dose Response confirmation of small molecule APOBEC3G DNA Deaminase Inhibitors via a fluorescence-based single-stranded DNA deaminase assay. [Related pubchem assays (depositor defined):AID493012, AID493028]; format: functional
Chain of DNA dC->dU-editing enzyme APOBEC-3G (Q9HC16 whole entry): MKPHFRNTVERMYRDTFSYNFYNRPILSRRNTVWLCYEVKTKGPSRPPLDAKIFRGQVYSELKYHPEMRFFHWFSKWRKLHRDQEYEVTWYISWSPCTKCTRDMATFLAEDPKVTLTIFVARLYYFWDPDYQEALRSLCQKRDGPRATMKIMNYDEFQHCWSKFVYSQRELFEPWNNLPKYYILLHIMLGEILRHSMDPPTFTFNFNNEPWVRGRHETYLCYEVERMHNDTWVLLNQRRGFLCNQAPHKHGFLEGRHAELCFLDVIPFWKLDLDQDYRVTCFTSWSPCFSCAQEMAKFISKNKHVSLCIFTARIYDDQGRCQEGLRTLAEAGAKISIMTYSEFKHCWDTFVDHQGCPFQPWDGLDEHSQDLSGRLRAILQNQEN

Cc1nn(-c2ccccc2)c(O)c1/C=N/c1ccc2[nH]c(O)nc2c1
EC50 [1]: > 99 µM (inactive)
EC50 [2]: > 99 µM (inactive)

O=C1C(O)=C(CC=C(Cl)Cl)C(=O)c2ccccc21
AC50 [3]: 4.87 µM (active)
GI50 (P388/ADR): 1.6 µM (inactive)
GI50 (SN12K1): 1.11 µM (active)
GI50 (P388): 1.8 µM (inactive)

COc1ccc(-c2sc3ccc(N4CCOCC4)cc3c2C#CC2(O)CCCCC2)cc1
AC50 [4]: 0.749 µM (active)
EC50 (Melanocortin receptor 4): > 89.2 µM (inactive)

Cc1cc(Nc2ccccc2)nc2cc(O)ccc12
EC50 [5]: 3.76 µM (active)
AC50 [3]: 4.44 µM (active)

COC(=O)CSc1ncnc2c1sc1nc3c(cc12)COC(C)(C)C3
AC50 (HEK293): 4.32 µM (active)

N#C/C(=C\c1ccc(-c2ccc(F)cc2)o1)C(=O)Nc1nc(-c2cccs2)cs1
EC50 [6]: 30 µM (active)
EC50 [7]: 25.6 µM (active)
EC50 (Troponin, cardiac muscle): > 71.5 µM (inactive)
EC50 [1]: > 99 µM (inactive)
EC50 [2]: 27.2 µM (inactive)
EC50 (Melanocortin receptor 4): > 89.2 µM (inactive)

Sc1nnc(C2CCCCC2)n1/N=C/c1ccncc1
IC50 [8]: > 100 µM (inactive)
IC50 [9]: 7.27 µM (active)
AC50 (HEK293): 11.5 µM (active)

CC(=O)Nc1cc(-c2cccc(C(=O)N(C)C)c2)cn2c(-c3ccc(F)c(Cl)c3)cnc12
EC50 (Melanocortin receptor 4): > 89.2 µM (inactive)

CCN1CCN(Cc2ccc(NC(=O)c3ccc(C)c(NC(=O)c4nccn4C)c3)cc2C(F)(F)F)CC1
AC50 (HEK293): 1.56 µM (active)

COc1ccc(O)c(-c2cc(-c3cccs3)[nH]n2)c1
AC50 [3]: 10.6 µM (active)
